Results: patent US20260007644A1, “NIMODIPINE COMPOSITION FREE OF ETHANOL AND PHOSPHOLIPID FOR MOIST HEAT STERILIZATION AND METHOD FOR PREPARING SAME” (BEIJING DELIVERY PHARMACEUTICAL TECHNOLOGY CO., LTD, priority 2022, published 2026)

Assays:
[1] = Description / appearance of the concentrates (visual inspection); format: physicochemical; conditions: 1.00 g active ingredient, HS15 45.00 g, propylene glycol 54.00 g, sterilized at 121° C. for 15 minutes
Experimental: The formation of solution upon dilution with 5% dextrose injection and the stability of the diluted solutions (the concentration of nimodipine is 0.1 mg/mL) were observed.
According to the Guidelines for the Stability Testing of Drug Substances and Preparations in Section 9001 of the General Notices, Pharmacopoeia of the People's Republic of China 2020, Volume IV, the concentrates prepared in Example 10 were tested at a temperature of 60° C. or under the light with an intensity of 5000 Lux, and sampled at the end of the 5th, 10th and 30th days to examine the specified items. • 1.
Method: visual inspection.

[2] = cited from earlier work

| Compound | formation of a clear and transparent solution in the system of HS15 and propylene glycol [1] | solubility in water [2] |
| --- | --- | --- |
| COc1cc([C@@H]2c3cc4c(cc3[C@@H](O[C@@H]3O[C@@H]5CO[C@@H](c6cccs6)O[C@H]5[C@H](O)[C@H]3O)[C@H]3COC(=O)[C@H]23)OCO4)cc(OC)c1O [teniposide] | failed to form clear and transparent solutions |  |
| C=C1CC[C@@H]2[C@](C)(CO)[C@H](O)CC[C@@]2(C)[C@@H]1C/C=C1/C(=O)OC[C@H]1O [andrographolide] | failed to form clear and transparent solutions |  |
| ginsenoside | failed to form clear and transparent solutions |  |
| CC[C@@H]([C@H](C)O)n1ncn(-c2ccc(N3CCN(c4ccc(OC[C@@H]5CO[C@@](Cn6cncn6)(c6ccc(F)cc6F)C5)cc4)CC3)cc2)c1=O [posaconazole] | failed to form clear and transparent solutions |  |
| COCCOC(=O)C1=C(C)NC(C)=C(C(=O)OC(C)C)C1c1cccc([N+](=O)[O-])c1 (racemic) [Nimodipine, 1-methylethyl 2-methoxyethyl (±)-2,6-dimethyl-4-(3-nitrophenyl)-1,4-dihydropyridine-3,5-dicarboxylate] |  | insoluble in water |
